Patent US20060100140A1, “Combination of a) n-{5-[4-(4-methyl-piperazino-methyl)-benzoylamido]2-methylphenyl}-4- (3-pyridyl)-2-pyrimidine-amine and b) a histone deacetylase inhibitor for the treatment of leukemia” (priority 2002, published 2006)

Key:
Format in all cases: cell-based, human
[1] = system: Jurkat lymphoblastic leukemia; experiment: Apoptosis by Wright Giemsa-stained cytospin slides; conditions: Jurkat: SAHA 0.75 μM; Compound I 250 nM; 24 hr
Procedure: (§1) Experimental Format: Logarithmically growing cells are placed in sterile plastic T-flasks (Corning, Corning, N.Y.) to which are added the designated drugs and the flasks replaced in the incubator for intervals. At the end of the incubation period, cells are transferred to sterile centrifuge tubes, pelleted by centrifugation at 400×g for 10 min at room temperature, and prepared for analysis as described below.
(§2) Assessment of Apoptosis: After drug exposures, cytocentrifuge preparations are stained with Wright-Giemsa and viewed by light microscopy to evaluate the extent of apoptosis (i.e., cell shrinkage, nuclear condensation, formation of apoptotic bodies, etc.) as described previously (Yu et al., Nat. Rev. Cancer 1:294-202). For these studies, the percentage of apoptotic cells is determined by evaluating ≧500 cells/condition in triplicate. To confirm the results of morphological analysis, Annexin V/PI staining is used. Annexin V/PI (BD PharMingen, San Diego, Calif.) analysis of cell death is carried out as per the manufacturer's instructions. In studies involving TNF and TNF soluble receptor, both compound are combined and maintained at room temperature 20 min prior to use. For these experiments 1-2×10^5 cells per condition are harvested. Analysis is carried out using a Becton-Dickinson FACScan cytofluorometer (Mansfield, Mass.). To further confirm the morphology results, TUNEL staining is used. For TUNEL staining, cytocentrifuge preparations are obtained and fixed with 4% formaldehyde. The slides are treated with acetic acid/ethanol (1:2), stained with terminal transferase reaction mixture containing 1× terminal transferase reaction buffer (0.25 units/μl terminal transferase, 2.5 mM CoCl2, and 2 pmol fluorescein-12-dUTM; Boehringer Mannheim, Indianapolis, Ind.), and visualized using fluorescence microscopy.

[2] = system: NB4 promyelocytic leukemia cells; experiment: Apoptosis by Wright Giemsa-stained cytospin slides; conditions: NB4: SAHA 1.5 μM; Compound I 250 nM; 24 hr
Procedure: as §1, §2

LAMA 84 cells = experiment: Apoptosis by cytospin slides
Procedure: as §1, §2

K562 cells [3] = experiment: Clonogenic survival in soft agar; conditions: 2.0 μM SAHA ± 250 nM Compound I for 24 hr, washed, 12-day incubation
Procedure: Analysis of erythroid maturation of K562 cells is performed by monitoring the production of hemoglobin as previously described (Yang et al., J. Biol. Chem. 2001, 276:25742-52). Clonogenic Survival: Effects of drug treatment on the clonogenic survival of leukemia cells is determined using a previously described clonogenic assay (Yu et al., Mol. Pharmacol. 2001, 60: 143-54).

K562 cells [4] = experiment: Erythroid differentiation by hemoglobin (Hgb) production; conditions: 2.0 μM SAHA ± 250 nM Compound I
Excerpt: In each case, values represent the means±S.D. for three separate experiments.

[5] = system: Compound I-resistant K562 cells (K562R); experiment: Apoptosis by Wright Giemsa-stained cytospin slides in resistant cells; conditions: Table 7, 24 hr, Compound I (1.0 or 1.25 μM), SAHA (1.0 or 2.0)
Procedure: as §2, with “For TUNEL staining, cytocentrifuge preparations are obtained and fixed with 4% formaldehyde.” left out

[6] = system: K562 cells transfected with GFP alone; experiment: Apoptosis in sorted transiently transfected cells; conditions: Table 8, 2.0 μM SAHA ± 250 nM Compound I for 24 hr
Procedure: as §2, with “In studies involving TNF and TNF soluble receptor, both compound are combined and maintained at room temperature 20 min prior to use. For these experiments 1-2×10^5 cells per condition are harvested. Analysis is carried out using a Becton-Dickinson FACScan cytofluorometer (Mansfield, Mass.). To further confirm the morphology results, TUNEL staining is used. For TUNEL staining, cytocentrifuge preparations are obtained and fixed with 4% formaldehyde.” left out
(§3) Transient transfections: Plasmids encoding enhanced green fluorescence protein under the transciptional control of the human cytomegalovirus (CMV) immediate-early promoter (pEGFP-C2), and HA-tagged activated MEK1 (S218D/S222D in pUSEEamp) are obtained from Clontech Laboratories (Palo Alto, Calif.) and Upstate Biotechnology (Lake Placid, N.Y.), respectively.

[7] = system: K562 cells transfected with GFP/constitutively active MEK1/2 fusion cDNA; experiment: Apoptosis in sorted transiently transfected cells; conditions: Table 8; GFP/MEK; 2.0 μM SAHA ± 250 nM Compound I for 24 hr
Procedure: as §2, with “In studies involving TNF and TNF soluble receptor, both compound are combined and maintained at room temperature 20 min prior to use. For these experiments 1-2×10^5 cells per condition are harvested. Analysis is carried out using a Becton-Dickinson FACScan cytofluorometer (Mansfield, Mass.). To further confirm the morphology results, TUNEL staining is used. For TUNEL staining, cytocentrifuge preparations are obtained and fixed with 4% formaldehyde.” left out
as §3

p21^CIP1 = experiment: Western analysis of p21CIP1 in K562 cells; conditions: 2.0 μM SAHA ± 250 nM Compound I
Procedure: Immunoblot Analysis: Immunoblotting is performed as described previously (Yu et al., Nat. Rev. Cancer 1:294-202). In brief, after drug treatment cells are pelleted by centrifugation, and lysed immediately in Laemmli buffer [1×=30 mM Tris-base (pH 6.8), 2% SDS, […] β-mercaptoethanol, and 10% glycerol], and briefly sonicated. Homogenates are quantified using Coomassie protein assay reagent (Pierce, Rockford, Ill.). Equal amounts of protein (20 μg) are boiled for 10 min, separated by SDS-PAGE (5% stacker and 10% resolving), and electroblotted to nitrocellulose membrane. After blocking in TBS-T (0.05%) and 5% milk for 1 h at 22° C., the blots are incubated in fresh blocking solution with an appropriate dilution of primary antibody for 4 h at 22° C. […]
K562 cells are treated as above, and monitored for expression of Bcl-xL, Mcl-1, and XIAP. […]

Cc1ccc(NC(=O)c2ccc(CN3CCN(C)CC3)cc2)cc1Nc1nccc(-c2cccnc2)n1 [Compound I, N-{5-[4-(4-methyl-piperazino-methyl)-benzoylamido]-2-methylphenyl}-4-(3-pyridyl)-2-pyrimidine-amine]
% of apoptotic cells [1]: 1.1 ± 0.6% | % of apoptotic cells [2]: 1.8 ± 1.3% | Compound I + SB % of apoptotic cells (LAMA 84 cells; Table 6, LAMA 84, 24 hr, sodium butyrate (SB; 1 or 2 mM), Compound I concentration not given): 9.3 ± 3.8% | cell death (LAMA 84 cells; sensitive LAMA 84, Compound I (1.0 or 1.25 μM) for 48 hr, data not shown): ~100%

O=C(CCCCCCC(=O)Nc1ccccc1)NO [SAHA, suberoylanilide hydroxamic acid]
Clonogenic survival (% control) (K562 cells [3]): 21.8 ± 3.6 % control | increase in Hgb production (K562 cells [4]; 24-hr exposure): ~50% | Hgb production (K562 cells [4]; 48 hr, data not shown): substantial increases | % of apoptotic cells [1]: 6.3 ± 3.2% | % of apoptotic cells [2]: 5.6 ± 2.3% | Compound I + SAHA % of apoptotic cells [5]: 6.8 ± 3.5% | apoptosis [6]: 22.5 ± 2.6% | apoptosis [7]: 19.8 ± 2.1% | induction of p21^CIP1 (p21^CIP1): robust induction
